The numbers were not newly measured in patent US20240108043A1, “NONNUTRITIVE SWEETENER COMPOSITIONS, METHODS OF MANUFACTURE AND USES THEREOF” (priority 2022, published 2024), which cites them from elsewhere.

Read-outs that look alike come from different tables or passages of the source.

The conditions of data set [1]: for Sweetness intensity relative to sucrose: times the sweetness intensity of sucrose.
For data set [2] the following is noted: in vivo.
For data set [3] the following is noted: diabetic human subjects, daily 20 g for 14 days.
For data set [4], the system named is TNF-Alpha and Interleukin 1-Beta. The conditions noted are these: concentration of 1 mM.
For data set [5] the following is noted: 500 mg, two years, mild hypertension patients.
Assay in data set [6]: not given
The source holds these as a separate data set.

In the case of `OC[C@@H](O)[C@@H](O)[C@H](O)[C@@H](O)CO` [sorbitol], the “Dose at which laxative affect is seen” value is, setting by setting: (men) 170 mg/kg; (women) 240 mg/kg.

Consider `O=C(CO)[C@@H](O)[C@H](O)[C@H](O)CO` [fructose, D-Fructose], for which, in data set [1], the “Sweetness intensity relative to sucrose” value is given as “approximately 1.7 times”.

For `OC[C@@H](O)[C@@H](O)CO` [erythritol, (2R,3S)-Butan-1,2,3,4-tetrol], the “Sweetness, as sweet as sucrose” value in data set [1] (percent of sucrose sweetness) is listed as 60-70%. Moreover, the “Sweetness intensity relative to sucrose” value in data set [1] is on record as 0.6-0.7 times. For the same molecule, the “Excreted through urine with molecular structure unchanged” value in data set [2] is “Approximately 90%”. In data set [3], the “Effect on blood glucose insulin” value is recorded as “no effect”.

As for `OC[C@@H](O)[C@@H](O[C@@H]1O[C@H](CO)[C@H](O)[C@H](O)[C@H]1O)[C@H](O)[C@@H](O)CO` [lactitol], the “Incidence of gastrointestinal distress compared to equal doses of sucrose” value (doses of 30-40 grams) is listed as “significantly (p<0.01) increased”.

As for `C=C1C[C@@]23CC[C@H]4[C@@](C)(CCC[C@@]4(C)C(=O)O)[C@@H]2CC[C@]1(O)C3` [steviol], the “Endotoxin release of TNF-Alpha and Interleukin 1-Beta” value in data set [4] is on record as “significantly suppressed”.

Turning to `C=C1C[C@@]23CC[C@H]4[C@@](C)(CCC[C@@]4(C)C(=O)O[C@@H]4O[C@H](CO)[C@@H](O)[C@H](O)[C@H]4O)[C@@H]2CC[C@]1(O[C@@H]1O[C@H](CO)[C@@H](O)[C@H](O)[C@H]1O[C@@H]1O[C@H](CO)[C@@H](O)[C@H](O)[C@H]1O)C3` [stevioside], the “Diastolic and systolic blood pressure” value in data set [5] is given as “significantly reduced”. The Blood glucose result in data set [6] (200 mg, sixty healthy volunteers) is on record as “effectively reduce blood glucose”. In data set [6] (1 gram vs 1 gram maize starch, type-2 diabetes patients, 30 and 240 minutes after a meal), the “Postprandial blood glucose levels” value is recorded as “reduced postprandial blood glucose levels”. In addition, in data set [4], the “Endotoxin release of TNF-Alpha and Interleukin 1-Beta” value is on record as “significantly suppressed”.

Turning to `O=C(CO)[C@H](O)[C@H](O)[C@H](O)CO` [allulose, D-ribo-2-hexulose], the “Sweetness intensity relative to sucrose” value in data set [1] is recorded as “approximately 0.7 times”.

Turning to `OC[C@@H](O)[C@@H](O)[C@H](O)[C@H](O)CO` [mannitol], the “Dose causing laxative affects” value (single bolus) is “greater than 20 grams”.
